# Source: PMC12017303 (Science Advances, 2025)
# System: α-HCoV 229E, β-HCoV OC43, MERS-CoV, SARS-CoV, SARS-CoV-2 variants (Delta, BA.2)
# Format: cell-based
# Conditions: read-out: EC50 against all tested variants
compound,measurement,value
C#CCn1c(C)c(-n2nnc3ccccc32)c(=O)n(-c2cncc3ccccc23)c1=O [AVI-4516],EC50,< 3000 nM
